Measurements taken from BindingDB's records for doi:10.1016/j.ejmech.2018.09.061 (Anhui University of Chinese Medicine, 2018).
pIC50: −log10 of the molar value.

Experiment: Inhibition of MDR1 in human KB/VCR cells assessed as potentiation of vincristine-induced cytotoxicity by measuring vincristine IC50 at 25 uM after 72 hrs by Western blot analysis (Rvb = 4.21 +/- 0.33 uM)

## CC(C)C(=O)OC(C)(C)[C@@H]1Cc2c(ccc3ccc(=O)oc23)O1
  pIC50: 6.25
